Measured values from US9486440B2, “Uses of indole-ketones or indolidones as neuro-protective drugs” (UNIVERSITY OF MACAU, priority 2011, dated 2016).

What was measured:
[1] = molecular target: T1, recombinant human endothelial NOS (eNOS) (Homo sapiens, UniProt P29474); assay: In vitro NOS activity assay, eNOS; format: biochemical; settings: PTK787/ZK222584 up to 1 mM
T1 construct: purchased Alexis Biochemicals (Lausen, Switzerland)
Method: In the in vitro NOS activity assay (Li et al., 2007), purified recombinant human nNOS, endothelial NOS (eNOS), and inducible NOS (iNOS) were bought from Alexis Biochemicals (Lausen, Switzerland). NOS activity was determined by monitoring the conversion of L-[3H]arginine to [3H]citrulline following the instructions provided in the kit (Calbiochem, USA). The reaction mixture contained a final volume of 40 μl with 25 mM Tris-Cl at pH 7.4, 3 μM tetrahydrobiopterin, 1 μM FAD, 1 μM FMN, 1 mM NADPH, 0.6 mM CaCl2, 0.1 μM calmodulin, 2.5 μg of pure NOS enzyme, 5 μl L-[3H]arginine (Perkin Elmer, Waltham, Mass., USA), and different concentrations of the tested reagents. The reaction mixture was incubated at 22° C. for 45 min. The reaction was quenched by adding 400 μl of stopping buffer (50 mM HEPES, pH 5.5, and 5 mM EDTA) for nNOS and eNOS reactions or by heating reactive tubes for iNOS. Unreacted L-[3H]arginine was then trapped by 100 μl of equilibrated resin provided in a spin cup followed by centrifugation for 30 s at 13,200 rpm. The filtrate was quantified by liquid scintillation counting.

SH-SY5Y cells = assay: MPP+-induced neurotoxicity in SH-SY5Y cells, MTT assay; format: cell-based, human; settings: for cell proliferative or cytotoxic effects of the drug alone, SH-SY5Y cells: alone for 26 hours, 10 μM SU4312, 3 μM PTK787/ZK222584, 0.3 μM sunitinib; for toxicity to SH-SY5Y cells at higher concentration: higher concentration (sunitinib 1 μM), data not shown; for MPP+-induced neuronal death in SH-SY5Y cells (MTT): pre-treatment 2 hours, then 1 mM MPP+ for 24 hours
Method: The human neuroblastoma SH-SY5Y cells were obtained from ATCC. The cells were maintained in supplemented Dulbecco's modified eagle medium (DMEM), 10% fetal bovine serum, 100 U/ml penicillin, and 100 μg/ml streptomycin in a 37° C., 5% CO2 incubator. PC12 pheochromocytoma cells were also obtained from ATCC. The cells were cultured in medium that consisted of DMEM, 10% heat-inactivated horse serum, 5% fetal bovine serum, 100 U/ml penicillin, and 100 μg/ml streptomycin in a 37° C., 5% CO2 incubator. All experiments were carried out 48 hours after the cells were seeded. […] The assay was performed according to the specifications of the manufacturer (MTT kit I; Roche Applied Science). […] After the incubation, 100 μl of the solvating solution (0.01 N HCl in 10% SDS solution) was added to each well for 16-20 hours. Absorbance of the samples was measured at a wavelength of 570 nm with 655 nm as a reference wavelength. Unless otherwise indicated, the extent of MTT conversion in cells exposed to MPP^+ is expressed as a percentage of the control.

PC12 cells = assay: MPP+-induced neurotoxicity in PC12 cells, MTT assay; format: cell-based; settings: for cell proliferative or cytotoxic effects of the drug alone, PC12 cells: alone for 26 hours, 10 μM SU4312, 3 μM PTK787/ZK222584; for toxicity to PC12 cells at higher concentration: data not shown; for MPP+-induced neuronal death in PC12 cells (MTT): pre-treatment 2 hours, then 1 mM MPP+ for 24 hours, SU4312 10 μM, PTK787/ZK222584 3 μM
Method: The human neuroblastoma SH-SY5Y cells were obtained from ATCC. The cells were maintained in supplemented Dulbecco's modified eagle medium (DMEM), 10% fetal bovine serum, 100 U/ml penicillin, and 100 μg/ml streptomycin in a 37° C., 5% CO2 incubator. PC12 pheochromocytoma cells were also obtained from ATCC. The cells were cultured in medium that consisted of DMEM, 10% heat-inactivated horse serum, 5% fetal bovine serum, 100 U/ml penicillin, and 100 μg/ml streptomycin in a 37° C., 5% CO2 incubator. All experiments were carried out 48 hours after the cells were seeded.
The percentage of surviving neurons in the presence of SU4312 and/or MPP^+ was estimated by determining the activity of mitochondrial dehydrogenases with 3(4,5-dimethylthiazol-2-yl)-2.5-diphenyltetrazolium bromide (MTT) assay (Li et al., 2007). The assay was performed according to the specifications of the manufacturer (MTT kit I; Roche Applied Science). Briefly, the neurons were cultured in 96-well plates, 10 μl of 5 mg/ml MTT labeling reagent was added to each well containing cells in 100 μl of medium, and the plates were incubated for 4 hours in a humidified incubator at 37° C. After the incubation, 100 μl of the solvating solution (0.01 N HCl in 10% SDS solution) was added to each well for 16-20 hours. Absorbance of the samples was measured at a wavelength of 570 nm with 655 nm as a reference wavelength. Unless otherwise indicated, the extent of MTT conversion in cells exposed to MPP^+ is expressed as a percentage of the control.

intracellular NO = assay: Intracellular NO in CGNs after MPP+ (DAF-FM diacetate); format: cell-based, rat; settings: 35 μM MPP+
Method: (§1) Intracellular NO was monitored with 4-Amino-5-methylamino-2′,7′-difluorofluorescein (DAF-FM) diacetate, a pH-insensitive fluorescent dye that emits increased fluorescence after reaction with an active intermediate of NO formed during the spontaneous oxidation of NO to NO2 (Sheng et al., 2005). DAF-FM solution was added to the culture medium (final concentration: 5 μM). After 30 min in a CO2 incubator, cultures were washed twice with PBS and incubated for an additional 30 min to allow complete de-esterification of the intracellular diacetate for stronger fluorescence. The DAF-FM fluorescence in CGNs was quantified by a multi-detection microplate reader using excitation and emission wavelengths of 495 nm and 515 nm, respectively. The measured fluorescence values were expressed as a percentage of the fluorescence in the control cells.
as §1, with “(4-amino-5-methylamino-2′,7′-difluorofluorescein) DAF-FM” for “4-Amino-5-methylamino-2′,7′-difluorofluorescein (DAF-FM)”, “After incubation for” for “After”, “another” for “an additional”, “strong” for “stronger”

SMILES | inhibition of recombinant human eNOS [1] | cell proliferative or cytotoxic effects of the drug alone, SH-SY5Y cells (SH-SY5Y cells) | toxicity to SH-SY5Y cells at higher concentration (SH-SY5Y cells) | MPP+-induced neuronal death in SH-SY5Y cells (MTT) (SH-SY5Y cells) | MPP+-induced neuronal death in SH-SY5Y cells (MTT) (SH-SY5Y cells; listed as PTK787) | cell proliferative or cytotoxic effects of the drug alone, PC12 cells (PC12 cells) | toxicity to PC12 cells at higher concentration (PC12 cells) | MPP+-induced neuronal death in PC12 cells (MTT) (PC12 cells) | MPP+-induced elevation of intracellular NO level (intracellular NO; pre-treatment 2 hours, 24 hours, SU4312 3-30 μM, 7-NI 3-10 μM) | MPP+-stimulated NO production (intracellular NO; measured at 8 hour)
Clc1ccc(Nc2nnc(Cc3ccncc3)c3ccccc23)cc1 [PTK787/ZK222584] | did not inhibit any of the isoforms even at 1 mM | did not show cell proliferative or cytotoxic effects | at higher concentration conferred toxicity | at 3 μM failed to block neuronal loss induced by MPP^+ | at 1 and 3 μM failed to block neuronal loss induced by MPP^+ | did not show cell proliferative or cytotoxic effects | at higher concentration conferred toxicity | at 3 μM failed to block neuronal loss induced by MPP^+ |  | 
CN(C)c1ccc(C=C2C(=O)Nc3ccccc32)cc1 [SU4312, 3-[4-(dimethylamino)benzylidenyl]indolin-2-one] | no activity against eNOS | did not show cell proliferative or cytotoxic effects | at higher concentration conferred toxicity | prevented MPP^+-induced dopaminergic neuronal death at 3-10 μM in SH-SY5Y cells |  | did not show cell proliferative or cytotoxic effects | at higher concentration conferred toxicity | prevented MPP^+-induced dopaminergic neuronal death | attenuated MPP^+-triggered elevation of intracellular NO level | 
Cc1cc(C)c(/C=C2\C(=O)Nc3ccccc32)[nH]1 [SU5416, (3Z)-3-[(3,5-dimethyl-1H-pyrrol-2-yl)methylidene]-1,3-dihydro-2H-indol-2-one] |  |  |  |  |  |  |  |  |  | antagonized the stimulatory effect of MPP^+ on the NO production with an efficacy similar to 7-nitroindazole (15 μM)
